This is an account of results in ChEMBL document CHEMBL5620373, “Establishment of environment-sensitive probes targeting BRD3/BRD4 for imaging and therapy of tumor” (Eur J Med Chem, 2023).

In general, inhibition refers to the percentage by which the read-out fell short of the control.

The subject of data set [1] is MCF7. In words: Induction of apoptosis in human MCF7 cells assessed as increase in AMPK mRNA level at 1 to 10 umol/L after 48 hrs by qRT-PCR analysis. In kind it is functional, cell-based. The following applies: dose 1-10 µmol/L.
Data set [2] deals with MCF7. Description: Induction of apoptosis in human MCF7 cells assessed as decrease in c-Myc mRNA level after 48 hrs by qRT-PCR analysis. The following applies: dose 1-10 µmol/L. In kind it is functional, cell-based. Background: Real-time PCR tracks product formation cycle by cycle.
The subject of data set [3] is MCF7. Description: Induction of apoptosis in human MCF7 cells assessed as increase in early apoptotic cells after 48 hrs by flow cytometry analysis. In kind it is functional, cell-based. (Flow cytometry measures light scatter and fluorescence of single cells or particles in a stream.)
The test system of data set [4] is MCF7. Description: Induction of apoptosis in human MCF7 cells assessed as increase in Bcl-2 mRNA level after 48 hrs by qRT-PCR analysis. Format: functional, cell-based. The following applies: dose 1-10 µmol/L.
The test system of data set [5] is MCF7. Description: Induction of apoptosis in human MCF7 cells assessed as increase in Bcl-2 mRNA level at 1 to 10 umol/L by qRT-PCR analysis. Format: functional, cell-based. The following applies: dose 1-10 µmol/L, TDE = time-dependent effect.
Data set [6] relates to MCF7. In words: Induction of apoptosis in human MCF7 cells assessed as decrease in c-Myc mRNA level at 1 to 10 umol/L after 48 hrs by qRT-PCR analysis. In kind it is functional, cell-based. The conditions noted are these: dose 1-10 µmol/L.
Data set [7] relates to MCF7. In words: Inhibition of cell migration in human MCF7 cells assessed as reduction in wound healing at 10 umol/L measured upto 72 hrs by scratch assay. Format: functional. The following applies: MCF7, 72 h, dose 10 µmol/L.
For data set [8], the system named is MCF7. Description: Induction of apoptosis in human MCF7 cells assessed as increase in AMPK mRNA level after 48 hrs by qRT-PCR analysis. In kind it is functional, cell-based. The conditions noted are these: dose 1-10 µmol/L.
The test system of data set [9] is MCF7. In words: Induction of apoptosis in human MCF7 cells assessed as decrease in c-Myc mRNA level at 1 to 10 umol/L by qRT-PCR analysis. The following applies: dose 1-10 µmol/L, TDE = time-dependent effect. Format: functional, cell-based.
The subject of data set [10] is MCF7. Description: Induction of apoptosis in human MCF7 cells assessed as increase in AMPK mRNA level at 1 to 10 umol/L by qRT-PCR analysis. In kind it is functional, cell-based. The following applies: dose 1-10 µmol/L, TDE = time-dependent effect.
In data set [11] the test system is MCF7. Description: Inhibition of cell migration in human MCF7 cells assessed as reduction in wound healing at 1 umol/L measured upto 72 hrs by scratch assay. Format: functional, cell-based. The following applies: dose 1.0 µmol/L.
In data set [12] the test system is MCF7. Description: Induction of apoptosis in human MCF7 cells assessed as increase in Bcl-2 mRNA level at 1 to 10 umol/L after 48 hrs by qRT-PCR analysis. In kind it is functional, cell-based. The following applies: dose 1-10 µmol/L.
Data set [13] in a line: Drug uptake in HEK293 cells assessed as fluorescence emission by fluorescence microscopic analysis. Format: ADME, cell-based. The conditions noted are these: human.
A short description of data set [14]: Fluorescent property of compound in PBS at pH 7.4 assessed as emission wavelength by microplate reader analysis. Format: physicochemical. The conditions noted are these: buffer.
A short description of data set [15]: Fluorescent property of compound in PBS at pH 7.4 assessed as excitation wavelength by microplate reader analysis. Format: physicochemical. The conditions noted are these: buffer.
The nature of data set [16]: Drug uptake in human MCF7 cells assessed as fluorescence emission by fluorescence microscopic analysis. In kind it is ADME, cell-based.
A short description of data set [17]: Drug uptake in fixed human MCF7 cells nucleus assessed as fluorescence intensity in presence of BRD3 antibody by acridine orange dye based analysis. In kind it is ADME, cell-based.
Data set [18] is described as follows: Drug uptake in human MCF7 cells nucleus assessed as fluorescence intensity at 15 umol/L in presence of JQ1(+) by acridine orange dye based analysis. Format: ADME, cell-based. The conditions noted are these: mcf7, 15 µM, dose 15 µmol/L.
Data set [19] in a line: Drug uptake in BRD4 silenced human MCF7 cells nucleus assessed as fluorescence intensity at 15 umol/L by acridine orange dye based analysis. In kind it is ADME, cell-based. The conditions noted are these: mcf7, 15 µM, dose 15 µmol/L.
In data set [20] the target is Bromodomain-containing protein 4 (Homo sapiens) (UniProt O60885). Description: Binding affinity to recombinant BRD4 (unknown origin) in PBS at pH 7.4 assessed as increase in fluorescence intensity at […] in presence of JQ1(+) by TR-FRET assay. The following applies: time 30.0 min. In general terms: Time-resolved FRET reads energy transfer from a long-lived donor to a nearby acceptor.

For data set [21], the system named is MCF7. Description: Antiproliferative activity against human MCF7 cells assessed as reduction in cell viability by MTT assay. In kind it is functional, cell-based.
Data set [22] in a line: Drug uptake in BRD3 silenced fixed human MCF7 cells nucleus assessed as fluorescence intensity at 15 umol/L by acridine orange dye based analysis. Format: ADME, cell-based. The conditions noted are these: mcf7, 15 µM, dose 15 µmol/L.
Data set [23] can be described thus: Drug uptake in fixed human MCF7 cells nucleus assessed as fluorescence intensity in presence of BRD4 antibody by acridine orange dye based analysis. Format: ADME, cell-based.
Data set [24] in a line: Drug uptake in human MCF7 cells xenografted nude mouse tumor tissue in presence of BRD4 antibody by immunofluorescence analysis. In kind it is ADME, Neoplasm. The conditions noted are these: in vivo.
Data set [25] in a line: Drug uptake in BRD4 silenced fixed human MCF7 cells nucleus assessed as fluorescence intensity at 15 umol/L by acridine orange dye based analysis. Format: ADME, cell-based. The conditions noted are these: mcf7, 15 µM, dose 15 µmol/L.
A short description of data set [26]: Drug uptake in human MCF7 cells nucleus assessed as fluorescence intensity at 15 umol/L by acridine orange dye based analysis. Format: ADME, cell-based. The conditions noted are these: mcf7, 15 µM, dose 15 µmol/L.
Data set [27] in a line: Drug uptake in human MCF7 cells xenografted mouse tumor tissue assessed as fluorescence intensity at 15 umol/L by acridine orange dye based fluorescence microscopic assay. In kind it is ADME, cell-based. The following applies: in vivo, 15 µM, dose 15 µmol/L.
The nature of data set [28]: Drug uptake in BRD3 silenced human MCF7 cells nucleus assessed as fluorescence intensity at 15 umol/L by acridine orange dye based analysis. Format: ADME, cell-based. The conditions noted are these: mcf7, 15 µM, dose 15 µmol/L.
Data set [29] deals with Bromodomain-containing protein 3 (Homo sapiens) (UniProt Q15059). In words: Binding affinity to recombinant BRD3 (unknown origin) in PBS at pH 7.4 assessed as increase in fluorescence intensity measured after 30 mins by TR-FRET assay. The following applies: dose 15.0 µmol/L.
Bromodomain-containing protein 3 (Homo sapiens), sequence (Q15059 2-726 limits assumed): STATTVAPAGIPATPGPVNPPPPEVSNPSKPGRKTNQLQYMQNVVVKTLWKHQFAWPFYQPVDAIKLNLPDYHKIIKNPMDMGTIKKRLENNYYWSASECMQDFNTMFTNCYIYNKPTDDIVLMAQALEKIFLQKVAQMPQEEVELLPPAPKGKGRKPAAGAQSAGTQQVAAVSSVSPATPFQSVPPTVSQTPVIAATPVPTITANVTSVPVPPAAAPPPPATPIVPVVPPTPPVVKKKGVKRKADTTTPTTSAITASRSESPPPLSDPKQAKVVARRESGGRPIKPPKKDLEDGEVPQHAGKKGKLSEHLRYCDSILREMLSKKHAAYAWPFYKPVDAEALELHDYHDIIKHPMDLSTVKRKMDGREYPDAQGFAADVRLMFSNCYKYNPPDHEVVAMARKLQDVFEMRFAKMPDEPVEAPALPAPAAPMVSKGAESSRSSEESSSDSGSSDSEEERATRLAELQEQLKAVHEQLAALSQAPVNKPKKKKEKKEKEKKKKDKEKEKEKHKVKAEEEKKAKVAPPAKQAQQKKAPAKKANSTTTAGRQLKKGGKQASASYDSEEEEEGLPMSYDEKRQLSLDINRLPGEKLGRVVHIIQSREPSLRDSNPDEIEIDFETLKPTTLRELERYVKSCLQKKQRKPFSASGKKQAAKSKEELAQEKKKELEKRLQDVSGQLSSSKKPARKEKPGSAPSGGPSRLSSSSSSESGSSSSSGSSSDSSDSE
Data set [30] is described as follows: Drug uptake in human MCF7 cells xenografted nude mouse tumor tissue in presence of BRD3 antibody by immunofluorescence analysis. Format: ADME, Neoplasm. The conditions noted are these: in vivo.
Data set [31] concerns the target Bromodomain-containing protein 3 (Homo sapiens) (UniProt Q15059). In words: Binding affinity to recombinant BRD3 (unknown origin) in PBS at pH 7.4 assessed as increase in fluorescence intensity at […] in presence of JQ1(+) by TR-FRET assay. The conditions noted are these: time 30.0 min.
In data set [32] the target is Bromodomain-containing protein 4 (Homo sapiens) (UniProt O60885). Description: Binding affinity to recombinant BRD4 (unknown origin) in PBS at pH 7.4 assessed as increase in fluorescence intensity measured after 30 mins by TR-FRET assay. The following applies: dose 0.4-3.1 µg/ml.
Data set [33] can be described thus: Drug uptake in human MCF7 cells xenografted nude mouse tumor tissue assessed as fluorescence intensity at 15 umol/L in presence of JQ1(+) by acridine orange dye based fluorescence microscopic assay. In kind it is ADME, Neoplasm. The following applies: in vivo, 15 µM, dose 15 µmol/L.

Calls of active or inactive are those of the source. The rule behind the calls is not given here.

Turning to `Cc1sc2c(c1C)C(c1ccc(Cl)cc1)=N[C@@H](CC(=O)OC(C)(C)C)c1nnc(C)n1-2`, the result in the data set with MCF7 [1], with MCF7 [3], with MCF7 [6] and with MCF7 [12] was Active. The Activity entry was “Dose-Dependent Effect” in the data set on MCF7 [2]; “Dose-Dependent Effect” in the data set with MCF7 [4]; “Tde” with MCF7 [5]; “Dose-Dependent Effect” in the data set on MCF7 [8]; “Tde” with MCF7 [9]; “Tde” in the data set with MCF7 [10]. The inhibition at 10 µM in the data set on MCF7 [7] amounted to 100%. Besides, in the data set on MCF7 [11], the inhibition result was “Active”.
`Cc1sc2c(c1C)C(c1ccc(Cl)cc1)=N[C@@H](CC(=O)NCCCCNS(=O)(=O)c1cccc3c(N(C)C)cccc13)c1nnc(C)n1-2`: the Drug uptake entry is “Not Active” in data set [13] and “Active” in [16]. Moreover, the Activity in data set [14] stood at 495 nm; in data set [15] it was 350 nm.
For the molecule `Cc1sc2c(c1C)C(c1ccc(Cl)cc1)=N[C@@H](CC(=O)NCCCNS(=O)(=O)c1cccc3c(N(C)C)cccc13)c1nnc(C)n1-2`, the Drug uptake result in data set [17] is “Active”; in [18] it was “Not Active”; in data set [13], “Not Active”; in data set [19], “Active”; in data set [22] it was “Active”; in data set [23], “Active”. The Drug uptake entry in data set [24], in data set [25], in data set [16], in [26], in data set [27] and in data set [28] was “Active” each time. Besides, the Drug uptake entry in data set [30] was “Active”; in data set [33], “Not Active”. For the same molecule, the result in the data set with MCF7 [1], with MCF7 [3], in the data set with MCF7 [21], in the data set on MCF7 [6] and in the data set on MCF7 [12] was Active. Also, the Activity result with MCF7 [2] is “Dose-Dependent Effect”; in the data set on MCF7 [4], “Dose-Dependent Effect”; with MCF7 [5], “Tde”; in data set [14], 495 nm; in data set [15] it was 350 nm; in the data set on MCF7 [8], “Dose-Dependent Effect”. Further, the Activity result in the data set with MCF7 [9] is “Tde”; in the data set with MCF7 [10] it was “Tde”; in data set [29], “Dose-Dependent Effect”; in [32], “Dose-Dependent Effect”. Moreover, the result in [20] and in data set [31] was inactive. In the data set with MCF7 [7], the inhibition at 10 µM worked out at 100%. Also, the inhibition result with MCF7 [11] is “Active”.
Turning to `Cc1sc2c(c1C)C(c1ccc(Cl)cc1)=N[C@@H](CC(=O)NCCCCCNS(=O)(=O)c1cccc3c(N(C)C)cccc13)c1nnc(C)n1-2`, the Drug uptake result in data set [13] was “Not Active”; in data set [16], “Active”. Besides, the Activity in data set [14] is recorded as 495 nm; in data set [15] it was 350 nm.
